According to patent publication US20140343085A1, “USE OF ARYL DERIVATIVES FOR CONTROLLING ECTOPARASITES” (Novartis AG, priority 2011, published 2014):

Columns and labels:
[1] = Blood concentration of active enantiomer in dogs, fed vs fasted (HPLC-MSMS, enantioselective column); type: in vivo; details: 50 mg/kg
Method: To 12 dogs of mixed breed, the racemic compound 5-[5-(3,4,5-trichloro-phenyl)-5-trifluoromethyl-4,5-dihydro-isoxazol-3-yl]-3-methyl-thiophene-2-carboxylic acid [(2,2,2-trifluoro-ethylcarbamoyl)-methyl]-amide was administered in form of a solution at a dose of 50 mg/kg of animal, and the blood concentration of said aryl isoxazoline compound within the dogs was then monitored up to 6 days following the administration.
4 dogs (Group 1) received a full daily ration of pelleted dry food 15 to 30 minutes before the administration of the aryl isoxazoline compound; The Group 2 dogs received an identical ration of pelleted dry feed 30 minutes after the administration of the active ingredient. To the remaining 4 dogs of Group 3, the aryl isoxazoline compound was administered in fasted condition, and they received the identical ration of pelleted dry food only 5 hours following the uptake of the antiparasiticide.
(§1) Analysis of the blood concentration was performed as follows. A blood sample from the animal was subjected to a precipitation step with organic solvent and subsequently cleaned up on a […] solid phase extraction cartridge. The eluate was evaporated to dryness and reconstituted in mobile phase and analyzed on a HPLC-MSMS using an enantioselective column (amylose-based, brand name “Chiralpak”).

[2] = Blood concentration of active enantiomer in cats, fed vs fasted (HPLC-MSMS, enantioselective column); type: in vivo; details: 45 mg, fasted Group 2
Method: as §1
To 4 cats, each 45 mg of the racemic compound 5-[5-(3,4,5-trichloro-phenyl)-5-trifluoromethyl-4,5-dihydro-isoxazol-3-yl]-3-methyl-thiophene-2-carboxylic acid [(2,2,2-trifluoro-ethylcarbamoyl)-methyl]-amide were administered in form of an oral solution, and the blood concentration of said aryl isoxazoline compound within the cats was then monitored according to the method as described in Example 1 up to 24 days following the administration.
2 cats (Group 1) received a full daily ration of commercial wet food 15 to 30 minutes before the administration of the aryl isoxazoline compound; The two Group 2 cats received an identical ration of wet food only 5 hours following the uptake of the aryl isoxazoline.

SMILES: Cc1cc(C2=NOC(c3cc(Cl)c(Cl)c(Cl)c3)(C(F)(F)F)C2)sc1C(=O)NCC(=O)NCC(F)(F)F (racemic) [5-[5-(3,4,5-trichloro-phenyl)-5-trifluoromethyl-4,5-dihydro-isoxazol-3-yl]-3-methyl-thiophene-2-carboxylic acid [(2,2,2-trifluoro-ethylcarbamoyl)-methyl]-amide]
- Blood concentration of active ingredient, comparison of groups ([1]; Group 1 (fed 15 to 30 minutes before administration)): highest blood concentration of active ingredient
- Blood concentration of active ingredient, sufficiency for ectoparasite control ([1]; Group 2 (fed 30 minutes after administration)): allowed effective ectoparasite control as well
- Blood concentration of the active enantiomer, sufficiency for ectoparasite control ([1]; Group 3 (fasted, fed 5 hours after)): never reached a level being sufficient for an effective ectoparasite control
- Level of active ingredient, sufficiency for ectoparasite control [2]: never reached a level of active ingredient sufficient to provide an effective ectoparasite control
